Measured values as given in ChEMBL document CHEMBL1649234, “Antimicrobial activities of piperacillin-tazobactam against Haemophilus influenzae isolates, including beta-lactamase-negative ampicillin-resistant and beta-lactamase-positive amoxicillin-clavulanate-resistant isolates, and mutations in their quinolone resistance-determining regions” (2009).
Values after ≈ are worked out from the molar mass of the structure shown.

Key:
Haemophilus influenzae [1] = assay: Antimicrobial activity against beta-lactamase negative ampicillin-resistant -Haemophilus influenzae by broth microdilution method; type: functional
Haemophilus influenzae [2] = assay: Antimicrobial activity against beta-lactamase negative ampicillin-resistant Haemophilus influenzae assessed as susceptible isolates by broth microdilution method; type: functional
Haemophilus influenzae [3] = assay: Antimicrobial activity against beta-lactamase positive (amoxicillin)clavulanate-resistant Haemophilus influenzae assessed as susceptible isolates by broth microdilution method; type: functional
Haemophilus influenzae [4] = assay: Antimicrobial activity against beta-lactamase positive (amoxicillin)clavulanate-resistant Haemophilus influenzae by broth microdilution method; type: functional
Haemophilus influenzae [5] = assay: Antimicrobial activity against beta-lactamase negative ampicillin-resistant-Haemophilus influenzae harboring fst1 mutant gene and gyrA Ser84Leu, parC Ser133Ala/Asn138Ser mutant gene by broth microdilution method
Haemophilus influenzae [6] = assay: Antimicrobial activity against beta-lactamase negative ampicillin-susceptible-Haemophilus influenzae harboring gyrA Asp88Gly, gyrB Thr472Ile and parC Asp83Asn mutant gene by broth microdilution method
Haemophilus influenzae [7] = assay: Antimicrobial activity against beta-lactamase positive (amoxicillin)-clavulanate-resistant Haemophilus influenzae harboring fst1 mutant gene and gyrA Ser84Leu, parC Ser84Cys and parE Ala369Thr mutant gene by broth microdilution method
Haemophilus influenzae [8] = assay: Antimicrobial activity against beta-lactamase positive (amoxicillin)-clavulanate-resistant Haemophilus influenzae harboring fst1 mutant gene and gyrA Ser84Leu, parC Ser84Ile/Asn138Ser mutant gene by broth microdilution method
Haemophilus influenzae [9] = assay: Antimicrobial activity against beta-lactamase positive (amoxicillin)-clavulanate-resistant Haemophilus influenzae harboring fst1 mutant gene and gyrA Ser84Leu/Asp88Gly, parC Glu88Lys and parE VAl392Ile/Asp420Asn mutant gene by broth microdilution method
Haemophilus influenzae [10] = assay: Antimicrobial activity against beta-lactamase negative ampicillin-resistant-Haemophilus influenzae harboring fst1 mutant gene and gyrA Ser84Leu, parC Asn138Ser and parE Ser474Asn mutant gene by broth microdilution method
Haemophilus influenzae [11] = assay: Antimicrobial activity against beta-lactamase negative ampicillin-resistant-Haemophilus influenzae harboring fst1 mutant gene and gyrA Asp88Thr and parC Glu88Lys mutant gene by broth microdilution method
Haemophilus influenzae [12] = assay: Antimicrobial activity against beta-lactamase positive ampicillin-resistant-Haemophilus influenzae gyrA Ser84Leu, parC Ser84Arg/Asn138Ser and parE Asp364Gly mutant gene by broth microdilution method
Haemophilus influenzae [13] = assay: Antimicrobial activity against beta-lactamase positive ampicillin-resistant-Haemophilus influenzae gyrA Asp88Asn, parC Ser84Cys and parE Ala369Thr mutant gene by broth microdilution method
Haemophilus influenzae [14] = assay: Antimicrobial activity against beta-lactamase negative ampicillin-resistant-Haemophilus influenzae harboring fst1 mutant gene and gyrA Ser84Leu mutant gene by broth microdilution method
Haemophilus influenzae [15] = assay: Antimicrobial activity against beta-lactamase positive (amoxicillin)-clavulanate-resistant Haemophilus influenzae harboring fst1 mutant gene and gyrA Asp88Thr mutant gene by broth microdilution method
Haemophilus influenzae [16] = assay: Antimicrobial activity against beta-lactamase positive (amoxicillin)-clavulanate-resistant -Haemophilus influenzae harboring fst1 mutant gene and gyrA Ser84Leu, parC Ser84Cys and parE Asp364Thr mutant gene by broth microdilution method
Haemophilus influenzae [17] = assay: Antimicrobial activity against beta-lactamase positive (amoxicillin)-clavulanate-resistant Haemophilus influenzae harboring fst1 mutant gene and gyrA Ser84Leu and parE Ala369Thr mutant gene by broth microdilution method
Haemophilus influenzae [18] = assay: Antimicrobial activity against beta-lactamase positive (amoxicillin)clavulanate-resistant Haemophilus influenzae assessed as susceptible isolates by broth microdilution method in presence of beta-lactamase inhibitor Tazobactam; type: functional
Haemophilus influenzae [19] = assay: Antimicrobial activity against beta-lactamase negative ampicillin-resistant-Haemophilus influenzae harboring […] mutant gene by disk diffusion method in presence of beta-lactamase inhibitor Tazobactam; type: functional
Haemophilus influenzae [20] = assay: Antimicrobial activity against beta-lactamase negative ampicillin-resistant Haemophilus influenzae assessed as susceptible isolates by broth microdilution method in presence of beta-lactamase inhibitor Tazobactam; type: functional
Haemophilus influenzae [21] = assay: Antimicrobial activity against beta-lactamase negative ampicillin-susceptible Haemophilus influenzae harboring […] mutant gene assessed as susceptible isolates by broth microdilution method in presence of beta-lactamase inhibitor Tazobactam; type: functional
Haemophilus influenzae [22] = assay: Antimicrobial activity against beta-lactamase negative ampicillin-resistant Haemophilus influenzae by broth microdilution method in presence of beta-lactamase inhibitor Tazobactam; type: functional
Haemophilus influenzae [23] = assay: Antimicrobial activity against beta-lactamase-positive ampicillin-resistant Haemophilus influenzae harboring […] mutant gene by broth microdilution method in presence of beta-lactamase inhibitor Tazobactam; type: functional
Haemophilus influenzae [24] = assay: Antimicrobial activity against beta-lactamase-positive ampicillin-resistant Haemophilus influenzae harboring fst1 mutant gene assessed as susceptible isolates by broth microdilution method in presence of beta-lactamase inhibitor Tazobactam; type: functional
Haemophilus influenzae [25] = assay: Antimicrobial activity against beta-lactamase negative […]-Haemophilus influenzae harboring […] mutant gene by disk diffusion method in presence of beta-lactamase inhibitor Tazobactam; type: functional
Haemophilus influenzae [26] = assay: Antimicrobial activity against beta-lactamase positive (amoxicillin)clavulanate-resistant Haemophilus influenzae by broth microdilution method in presence of beta-lactamase inhibitor Tazobactam; type: functional
Haemophilus influenzae [27] = assay: Antimicrobial activity against beta-lactamase negative ampicillin-susceptible Haemophilus influenzae harboring […] mutant gene by broth microdilution method in presence of beta-lactamase inhibitor Tazobactam; type: functional
Haemophilus influenzae [28] = assay: Antimicrobial activity against beta-lactamase negative ampicillin-susceptible Haemophilus influenzae harboring […] mutant gene by broth microdilution method in presence of beta-lactamase inhibitor clavulanic acid; type: functional
Haemophilus influenzae [29] = assay: Antimicrobial activity against beta-lactamase-positive ampicillin-resistant Haemophilus influenzae harboring fst1 mutant gene by broth microdilution method in presence of beta-lactamase inhibitor clavulanic acid; type: functional
Haemophilus influenzae [30] = assay: Antimicrobial activity against beta-lactamase negative ampicillin-susceptible Haemophilus influenzae harboring […] mutant gene assessed as susceptible isolates by broth microdilution method in presence of beta-lactamase inhibitor clavulanic acid; type: functional
Haemophilus influenzae [31] = assay: Antimicrobial activity against beta-lactamase negative ampicillin-resistant Haemophilus influenzae by broth microdilution method in presence of beta-lactamase inhibitor clavulanic acid; type: functional
Haemophilus influenzae [32] = assay: Antimicrobial activity against beta-lactamase positive (amoxicillin)clavulanate-resistant Haemophilus influenzae assessed as susceptible isolates by broth microdilution method in presence of beta-lactamase inhibitor clavulanic acid; type: functional
Haemophilus influenzae [33] = assay: Antimicrobial activity against beta-lactamase-positive ampicillin-resistant Haemophilus influenzae harboring […] mutant gene assessed as susceptible isolates by broth microdilution method in presence of beta-lactamase inhibitor clavulanic acid; type: functional
Haemophilus influenzae [34] = assay: Antimicrobial activity against beta-lactamase positive (amoxicillin)clavulanate-resistant Haemophilus influenzae by broth microdilution method in presence of beta-lactamase inhibitor clavulanic acid; type: functional
Haemophilus influenzae [35] = assay: Antimicrobial activity against beta-lactamase negative ampicillin-resistant Haemophilus influenzae assessed as susceptible isolates by broth microdilution method in presence of beta-lactamase inhibitor clavulanic acid; type: functional

CO/N=C(\C(=O)N[C@@H]1C(=O)N2C(C(=O)O)=C(CSc3nc(=O)c(O)nn3C)CS[C@H]12)c1csc(N)n1 [CEFTRIAXONE]
MIC50 (Haemophilus influenzae [1]): 0.25 µg/mL (≈ 0.451 µM)
MIC90 (Haemophilus influenzae [1]): 0.25 µg/mL (≈ 0.451 µM)
Activity (Haemophilus influenzae [2]): 100%
Activity (Haemophilus influenzae [3]): 100%
MIC50 (Haemophilus influenzae [4]): 0.12 µg/mL
MIC90 (Haemophilus influenzae [4]): 0.25 µg/mL

O=C(O)c1cn(C2CC2)c2cc(N3CCNCC3)c(F)cc2c1=O [CIPROFLOXACIN]
MIC (Haemophilus influenzae [5]): 0.06 µg/mL (≈ 0.181 µM)
MIC (Haemophilus influenzae [6]): 0.25 µg/mL (≈ 0.754 µM)
MIC (Haemophilus influenzae [7]): 0.06 µg/mL
MIC (Haemophilus influenzae [8]): 0.5 µg/mL
MIC (Haemophilus influenzae [9]): 16 µg/mL
MIC (Haemophilus influenzae [10]): 0.06 µg/mL (≈ 0.181 µM)
MIC (Haemophilus influenzae [11]): 0.06 µg/mL (≈ 0.181 µM)
MIC (Haemophilus influenzae [12]): 0.25 µg/mL (≈ 0.754 µM)
MIC (Haemophilus influenzae [13]): 0.25 µg/mL (≈ 0.754 µM)
MIC (Haemophilus influenzae [14]): 0.06 µg/mL (≈ 0.181 µM)
MIC (Haemophilus influenzae [15]): 0.06 µg/mL
MIC (Haemophilus influenzae [16]): 0.25 µg/mL
MIC (Haemophilus influenzae [17]): 0.06 µg/mL

CCN1CCN(C(=O)N[C@@H](C(=O)N[C@@H]2C(=O)N3[C@@H]2SC(C)(C)[C@@H]3C(=O)O)c2ccccc2)C(=O)C1=O [PIPERACILLIN]
Activity (Haemophilus influenzae [18]): 100%
inhibition zone (IZ) (Haemophilus influenzae [19]): >=21 mm
Activity (Haemophilus influenzae [20]): 100%
MIC50 (Haemophilus influenzae [1]): 0.12 µg/mL (≈ 0.232 µM)
MIC90 (Haemophilus influenzae [1]): 0.25 µg/mL (≈ 0.483 µM)
Activity (Haemophilus influenzae [21]): 100%
MIC50 (Haemophilus influenzae [22]): 0.06 µg/mL
MIC90 (Haemophilus influenzae [22]): 0.12 µg/mL
MIC (Haemophilus influenzae [23]): ≤ 0.03 µg/mL
MIC50 (Haemophilus influenzae [23]): ≤ 0.03 µg/mL
MIC90 (Haemophilus influenzae [23]): 0.06 µg/mL
Activity (Haemophilus influenzae [24]): 100%
inhibition zone (IZ) (Haemophilus influenzae [25]): >=21 mm
MIC50 (Haemophilus influenzae [26]): 0.12 µg/mL
MIC90 (Haemophilus influenzae [26]): 0.25 µg/mL
MIC50 (Haemophilus influenzae [4]): 32 µg/mL
MIC90 (Haemophilus influenzae [4]): ≥ 64 µg/mL
MIC (Haemophilus influenzae [27]): ≤ 0.03 µg/mL
MIC50 (Haemophilus influenzae [27]): ≤ 0.03 µg/mL
MIC90 (Haemophilus influenzae [27]): 0.06 µg/mL

CC1(C)S[C@@H]2[C@H](NC(=O)[C@H](N)c3ccc(O)cc3)C(=O)N2[C@H]1C(=O)O [AMOXICILLIN]
MIC50 (Haemophilus influenzae [28]): 0.5 µg/mL
MIC90 (Haemophilus influenzae [28]): 1 µg/mL
MIC (Haemophilus influenzae [29]): 0.5 µg/mL
MIC50 (Haemophilus influenzae [29]): 0.5 µg/mL
MIC90 (Haemophilus influenzae [29]): 1 µg/mL
Activity (Haemophilus influenzae [30]): 100%
MIC50 (Haemophilus influenzae [31]): 8 µg/mL
MIC90 (Haemophilus influenzae [31]): 8 µg/mL
Activity (Haemophilus influenzae [32]): 0%
Activity (Haemophilus influenzae [33]): 100%
MIC (Haemophilus influenzae [34]): 8 µg/mL
MIC50 (Haemophilus influenzae [34]): 8 µg/mL
MIC90 (Haemophilus influenzae [34]): 8 µg/mL
Activity (Haemophilus influenzae [35]): 27%
